How the values were obtained:
[1] = Nanoparticle size by dynamic light scattering; assay type: physicochemical; conditions: Luc mRNA NPs, varied PEG-lipid
Description: (§1) Nanoparticle property characterization: Physical properties were measured using a Zetasizer Nano ZS (Malvern) with an He—Ne laser (λ=632 nm). Particle sizes were measured by dynamic light scattering (DLS) (5 measurements, 3 runs×10 seconds, automatic attenuator setting) by 173° back scattering. Zeta potential was measured in a folded capillary cell (Malvern) with samples diluted in PBS for ZAL NPs or citrate phosphate buffer pH 7.4 for CSAL NPs.
as §1, with “Physical” for “Nanoparticle property characterization: Physical”

[2] = tested on: HeLa-Luc-Cas9 cells; assay: Kinetic assay of sgRNA and siRNA delivery (luciferase expression over time); assay type: cell-based
Description: The kinetics of luciferase expression after silencing/editing by siRNA and sgRNA were determined in HeLa-Luc-Cas9 cells. For time points <48 h, ZNPs encapsulating sgRNA or siRNA were delivered to HeLa-Luc-Cas9 cells in 96-well plates at a density of 5K cells per well. After 0.5, 1, 2, 4, 11, 20, 30 and 44 h time point, the cell viability and luciferase expression were determined by the One-Glow+Tox assay. For longer time points, cells were treated in 6-well plates. Beginning at the 2 day time point, cells were aspirated, washed with 1×PBS, trypsinized in 200 μL trypsin and re-suspended in 1800 μL medium. 1 mL of each cell suspension was added to a fresh 6-well plate containing 1 mL DMEM (2 mL total) and returned to the incubator. Of the remaining cell suspension, 50 μL was transferred to a 96-well white-opaque plate (10 wells per sample). Cell viability was determined using the Cell-Titer Glo assay normalized to untreated cells, while relative luciferase expression was determined using the One-Glo assay and normalized against control (siCtrl or sgCtrl). Data was plotted as an average of 5 measurements+/−standard deviation.

[3] = tested on: A549-Luc cells; assay: Cas9 mRNA delivery: mRNA level (RT-qPCR) and Cas9 protein expression (western blot); assay type: cell-based; conditions: for level of Cas9 mRNA: A549 lung cancer cells
Description: The cells were lysed in cold RIPA buffer (Thermo Scientific), the lysate cleared by centrifugation and total protein in the supernatant quantified by the BCA assay (Pierce). 50 μg total protein was loaded on 4-20% precast polyacrylamide gel and transferred to a nitrocellulose membrane (BioRad). The membrane was blocked in 5% nonfat milk for 1 hour at RT, and then incubated with primary antibody at 4° C. overnight (Cas9 antibody, 1:1000, Cell Signaling, 14697S; beta-actin antibody, 1:2000, Cell Signaling, 4970). Secondary antibodies were applied at RT for 1 hour (anti-rabbit IgG, HRP-linked antibody, Cell Signaling, 7074, anti-mouse IgG, HRP-linked antibody, Cell Signaling, 7076), and then the membrane was developed and detected on X-ray film.
Cells were transfected with Cas9 mRNA for the indicated time point in a 6-well plate and 0.5 μg/mL mRNA for the indicated time point. Total RNA was extracted using the TRIzol reagent according to the manufacturer's protocol. The RNA was reverse transcribed using the iScript Reverse Transcription kit (BioRad) and the real-time qPCR was run on a Bio-Rad C1000 Touch Thermal Cycler (CFX384 Real-time System). Each reaction was made with iTaq Universal SYBR Green 2× Supermix (Bio-Rad). The qPCR program is as follows:
Human β-actin was used as a control and mRNA levels were normalized to fold actin and plotted as an average of two independent experiments.

[4] = In vivo luciferase mRNA delivery (bioluminescence imaging); parameters: species or system mice; conditions: Luc mRNA i.v., 24 h; athymic nude 1 mg/kg, C57BL/6 4 mg/kg, NSG 1 mg/kg
Description: In vivo luciferase mRNA delivery: All experiments were approved by the Institutional Animal Care & Use Committee (IACUC) of The University of Texas Southwestern Medical Center and were consistent with local, state and federal regulations as applicable. ZA3-Ep10 ZAL was formulated with in vivo formulation at 50 ZAL:38.5 cholesterol: 2 or 0.5 PEG-lipid mole ratio in the lipid mix, and 7.5:1 ZAL:mRNA weight ratio. Athymic Nude-Foxn1^nu mice (Harlan Laboratories) were injected with ZAL-mRNA NPs at a dose of 1 mg/kg via tail vein injection or intraperiotneal injection. After 24 h and 48 h the luciferase expression was evaluated by live animal bioluminescence imaging Animals were anesthetized under isofluorane, and D-luciferin monosodium hydrate (GoldBio) substrate was injected IP. […]
All experiments were approved by the Institutional Animal Care & Use Committee (IACUC) of The University of Texas Southwestern Medical Center and were consistent with local, state and federal regulations as applicable. […] After 24 h and 48 h the luciferase expression was evaluated by live animal bioluminescence imaging Animals were anesthetized under isofluorane, and D-luciferin monosodium hydrate (GoldBio) substrate was injected subcutaneously in the neck scruff. […]

Which results are given for `CCCCCCCCC(O)CN(CCC(=O)NCC[N+](C)(C)CCCS(=O)(=O)[O-])CCN(CCN(CC(O)CCCCCCCC)CC(O)CCCCCCCC)CCN(CC(O)CCCCCCCC)CC(O)CCCCCCCC` (stereo not drawn) [ZA3-Ep10]?
change in ZNP size versus PEG lipid ratio [1]: modest change; decrease of luciferase expression ([2]; sgLuc, 20 h): 40%; decrease of luciferase expression ([2]; sgLuc, after 2 days): 95%; remaining luciferase expression ([2]; sgLuc, persisted throughout the assay (9 days)): 5%; time luciferase remained low ([2]; siLuc): about 3 days; time until protein expression reached baseline level ([2]; siLuc, after transfection): 6 days; luciferase silenced ([2]; siLuc, by 20 h): 92%; decrease of luciferase expression ([2]; siLuc, within the first 4 h): 40%; time of highest Cas9 protein expression ([3]; A549 cells, low at 4 h, increased by 12 h): 36 h; level of Cas9 mRNA ([3]; after 4 h incubation): > 4 fold actin; level of Cas9 mRNA ([3]; over the next 45 h): 0.7 fold actin; tissues with expression of luciferase [4]: liver, lung and spleen

Source: patent publication US11685710B2, “Cationic sulfonamide amino lipids and amphiphilic zwitterionic amino lipids” (The Board of Regents of the University of Texas System, priority 2016, dated 2023)
